Experimental data taken from patent US20130296311A1, “INHIBITORS OF HCV NS5A” (PRESIDIO PHARMACEUTICALS, INC., priority 2010, published 2013).
pEC50: −log10 of the molar value.

What follows are compounds tested on HCV 1b_Huh-Luc/Neo-ET cell line persistently expressing a bicistronic genotype 1b replicon in Huh 7 cells (assay: HCV replicon assay (luciferase readout, 72 h)). Conditions: Hepatitis C virus, Huh-7, 72 h, read-out: Inhibition of HCV genotype 1b.
Format: cell-based, HCV genotype 1b
How it was run: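 Huh 7 cells carrying a bicistronic genotype 1b luciferase/neo replicon received compound in triplicate the day after plating. After 72 h, replicon levels were read as Bright-Glo luciferase activity, expressed as % of control; EC50 was fitted with a four-parameter logistic and determined several times.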
Compound COC(=O)N[C@H](CC(=O)N1CCC[C@H]1c1ncc(-c2ccc(C#Cc3ccc4nc([C@@H]5CCCN5C(=O)C[C@@H](NC(=O)OC)C(C)C)[nH]c4c3)cc2)[nH]1)C(C)C [Compound 1065] has a pEC50 of 6.00 to 8.00. O=C(N[C@@H](C(=O)N1CCC[C@H]1c1ncc(-c2ccc(C#Cc3ccc(-c4cnc([C@@H]5CCCN5C(=O)[C@@H](c5ccccc5)N5CCCC5)[nH]4)cc3)cc2)[nH]1)c1ccccc1)C1CC1 [Compound 217] gave a pEC50 greater than 9.00. For COC(=O)N[C@@H](C(=O)N1CCC[C@H]1c1ncc(-c2ccc(C#Cc3ccc(-c4cnc([C@@H]5CCCN5C(=O)[C@H](OC)c5ccccc5)[nH]4)cc3)cc2)[nH]1)c1ccccc1 [Compound 179], the pEC50 was greater than 9.00. COCCOc1c(C#Cc2ccc3nc([C@@H]4CCCN4C(=O)[C@@H](NC(=O)OC)C(C)C)[nH]c3c2)ccc(-c2cnc([C@@H]3CCCN3C(=O)[C@H](NC(=O)OC)C(C)C)[nH]2)c1OCCOC [Compound 1066] gave a pEC50 greater than 9.00. With COC(=O)N[C@H](C(=O)N1CCC[C@H]1c1nc(-c2cnc3cc(C#Cc4cnc([C@@H]5CCCN5C(=O)[C@@H](NC(=O)OC)C(C)C)[nH]4)ccc3c2)c[nH]1)C(C)C [Compound 1076] the pEC50 was greater than 9.00. Work on COC(=O)N[C@@H](C(=O)N1CCC[C@H]1c1ncc(-c2ccc(C#Cc3ccc(-c4cnc([C@@H]5CCCN5C(=O)[C@H](NC(=O)[C@@H]5CCCN5)c5ccccc5)[nH]4)cc3)cc2)[nH]1)c1ccccc1 [Compound 206] yielded a pEC50 greater than 9.00. Work on CNC(=O)N[C@@H](C(=O)N1CCC[C@H]1c1ncc(-c2ccc(C#Cc3ccc(-c4cnc([C@@H]5CCCN5C(=O)[C@H](NC(=O)C5CC5)c5ccccc5)[nH]4)cc3)cc2)[nH]1)c1ccccc1 [Compound 997] yielded a pEC50 greater than 9.00. Work on CC(=O)N[C@@H](C(=O)N1CCC[C@H]1c1ncc(C#Cc2ccc(C#Cc3cnc([C@@H]4CCCN4C(=O)[C@H](NC(C)=O)c4ccccc4)[nH]3)cc2)[nH]1)c1ccccc1 [Compound 306] yielded a pEC50 greater than 9.00. Compound COC(=O)N[C@@H](C(=O)N1CCC[C@H]1c1ncc(-c2ccc(C#Cc3ccc(-c4cnc([C@@H]5CCCN5C(=O)[C@H](NC(=O)N5CCN(C)CC5)c5ccccc5)[nH]4)cc3)cc2)[nH]1)c1ccccc1 [Compound 240] has a pEC50 greater than 9.00. O=C(N[C@@H](C(=O)N1CCC[C@H]1c1cc(-c2ccc(C#Cc3ccc(-c4cnc([C@@H]5CCCN5C(=O)[C@H](NC(=O)N5CCOCC5)c5ccccc5)[nH]4)cc3)cc2)n[nH]1)c1ccccc1)N1CCOCC1 [Compound 220] gave a pEC50 greater than 9.00. In the case of COC(=O)N[C@@H](C(=O)N1CCC[C@H]1c1ncc(C#Cc2ccc3nc([C@@H]4CCCN4C(=O)[C@H](NC(=O)OC)c4ccccc4)[nH]c3c2)[nH]1)c1ccccc1 [Compound 700], the pEC50 was greater than 9.00. CN(C)[C@@H](C(=O)N1CCC[C@H]1c1ncc(-c2ccc(C#Cc3ccc(-c4cnc([C@@H]5CCCN5C(=O)[C@H](NS(C)(=O)=O)c5ccccc5)[nH]4)cc3)cc2)[nH]1)c1ccccc1 [Compound 228] gave a pEC50 greater than 9.00. CNC(=O)N[C@@H](C(=O)N1CCC[C@H]1c1ncc(-c2ccc(C#Cc3ccc(-c4cnc([C@@H]5CCCN5C(=O)[C@H](NC(=O)NC)c5ccccc5)[nH]4)cc3)cc2)[nH]1)c1ccccc1 [Compound 162] showed a pEC50 greater than 9.00. In the case of COC(=O)N[C@@H](C(=O)N1CCC[C@H]1c1ncc(-c2ccc(C#Cc3ccc(-c4cnc([C@@H]5CCCN5C(=O)[C@H](NC(=O)N5CCC(O)CC5)c5ccccc5)[nH]4)cc3)cc2)[nH]1)c1ccccc1 [Compound 241], the pEC50 was greater than 9.00. COC(=O)N[C@H](C(=O)N1CCC[C@H]1c1ncc(-c2ccc(C#Cc3ccc(-c4cnc([C@@H]5CCCN5C(=O)[C@@H](NC(=O)OC)C5CCOCC5)[nH]4)c(F)c3)cc2)[nH]1)C1CCOCC1 [Compound 1012] gave a pEC50 greater than 9.00. In the case of COC(=O)N[C@H](C(=O)N1CCC[C@H]1c1nc(-c2cnc3cc(C#Cc4ccc(-c5cnc([C@@H]6CCCN6C(=O)[C@@H](NC(=O)OC)c6ccccc6)[nH]5)cc4)ccc3c2)c[nH]1)c1ccccc1 [Compound 1089], the pEC50 was 6.00 to 8.00. In the case of CC(C)[C@@H](C(=O)N1CCC[C@H]1c1ncc(-c2ccc(C#Cc3ccc4nc([C@@H]5CCCN5C(=O)[C@H](C(C)C)N5CCOC5=O)[nH]c4c3)cc2)[nH]1)N1CCOC1=O [Compound 1039], the pEC50 was 8.00 to 9.00. O=C(N[C@@H](C(=O)N1CCC[C@H]1C(=O)NCc1ccc(C#Cc2ccc(-c3cnc([C@@H]4CCCN4C(=O)[C@H](NC(=O)C4CC4)c4ccccc4)[nH]3)cc2)cc1)c1ccccc1)C1CC1 [Compound 190] gave a pEC50 greater than 9.00. With COC(=O)N[C@H](C(=O)N1CCC[C@H]1c1ncc(C#Cc2cccc3c(C#Cc4cnc([C@@H]5CCCN5C(=O)[C@@H](NC(=O)OC)C(C)C)[nH]4)cccc23)[nH]1)C(C)C [Compound 1113] the pEC50 was greater than 9.00. CN(C)C(=O)N[C@@H](C(=O)N1CCC[C@H]1c1ncc(C#Cc2ccc(C#Cc3cnc([C@@H]4CCCN4C(=O)[C@H](NC(=O)N(C)C)c4ccccc4)[nH]3)cc2)[nH]1)c1ccccc1 [Compound 308] was tested, and the pEC50 was greater than 9.00. Work on COC(=O)N[C@@H](C(=O)N1CCC[C@H]1c1ncc(C#Cc2ccc(C#Cc3cnc([C@@H]4CCCN4C(=O)[C@H](NC(=O)OC)c4ccccc4)[nH]3)cc2)[nH]1)c1ccccc1 [Compound 304] yielded a pEC50 greater than 9.00. Compound C=CC[C@H](NC(=O)OC)C(=O)N1CCC[C@H]1c1nc2ccc(C#Cc3ccc4c(c3)CCc3nc([C@@H]5CCCN5C(=O)[C@@H](NC(=O)OC)C(C)C)[nH]c3-4)cc2[nH]1 [Compound 1105] has a pEC50 greater than 9.00. COC(=O)N[C@H](C(=O)N1CCC[C@H]1c1ncc(-c2ccc(C#Cc3ccc(-c4cnc([C@@H]5CCCN5C(=O)[C@H](NC(=O)N5CCC(C)(O)CC5)c5ccccc5)[nH]4)cc3)cc2)[nH]1)C(C)C [Compound 992] showed a pEC50 greater than 9.00. CC(C)[C@@H](NC(=O)OC(C)(C)C)C(=O)N1CCC[C@H]1C(=O)NCCc1ccc(C#Cc2cnc([C@@H]3CCCN3C(=O)[C@H](NC(=O)OC(C)(C)C)C(C)C)[nH]2)cc1 [Compound 126] showed a pEC50 of 6.00 to 8.00. COC(=O)N[C@@H](C(=O)N1CCC[C@H]1c1ncc(-c2ccc(C#Cc3ccc(-c4cnc([C@@H]5CCCN5C(=O)[C@H](NC(=O)C5CC5)c5ccccc5)[nH]4)cc3)cc2)[nH]1)c1ccccc1 [Compound 218] gave a pEC50 greater than 9.00. COC[C@@H]1CCCN1C(=O)N[C@@H](C(=O)N1CCC[C@H]1c1ncc(-c2ccc(C#Cc3ccc(-c4cnc([C@@H]5CCCN5C(=O)[C@H](NC(=O)OC)c5ccccc5)[nH]4)cc3)cc2)[nH]1)c1ccccc1 [Compound 260] showed a pEC50 greater than 9.00. Compound COC(=O)N[C@H](C(=O)N1CCC[C@H]1c1ncc(-c2ccc(C#Cc3ccc(-c4cnc([C@H](C)NC(=O)[C@@H](c5ccccc5)N(C)C)[nH]4)cc3)cc2)[nH]1)C(C)C [Compound 983] has a pEC50 greater than 9.00. Compound COC(=O)N[C@H](C(=O)N1CCC[C@H]1c1ncc(-c2ccc(C#Cc3ccc4nc([C@@H]5CCCN5C(=O)[C@@H](C(C)C)N(C)C)[nH]c4c3)cc2)[nH]1)C(C)C [Compound 1020] has a pEC50 greater than 9.00. Work on CCN(CC)[C@@H](C(=O)N1CCC[C@H]1c1ncc(C#Cc2ccc(C#Cc3cnc([C@@H]4CCCN4C(=O)[C@H](NC(=O)OC)c4ccccc4)[nH]3)cc2)[nH]1)c1ccccc1 [Compound 315] yielded a pEC50 greater than 9.00. CC(C)(C)OC(=O)N[C@@H](C(=O)N1CCC[C@H]1c1ncc(C#Cc2ccc(-c3cnc([C@@H]4CCCN4C(=O)[C@H](NC(=O)OC(C)(C)C)c4ccccc4)[nH]3)cc2)[nH]1)c1ccccc1 [Compound 99] showed a pEC50 greater than 9.00. In the case of COC(=O)N[C@@H](CCC(=O)O)C(=O)N1CCC[C@H]1c1ncc(-c2ccc(C#Cc3ccc4nc([C@@H]5CCCN5C(=O)[C@H](CCC(=O)O)NC(=O)OC)[nH]c4c3)cc2)[nH]1 [Compound 1047], the pEC50 was 6.00 to 8.00. Compound CC(C)[C@@H](C(=O)N1CCC[C@H]1c1ncc(-c2ccc(C#Cc3ccc(-c4cnc([C@@H]5CCCN5C(=O)[C@H](C(C)C)N5CCOC5=O)[nH]4)cc3)cc2)[nH]1)N1CCOC1=O [Compound 1006] has a pEC50 of 6.00 to 8.00. In the case of COC(=O)N[C@H](C(=O)N[C@@H](C)c1ncc(-c2ccc(C#Cc3ccc(-c4cnc([C@H](C)NC(=O)[C@@H](NC(=O)OC)C(C)C)[nH]4)cc3)cc2)[nH]1)C(C)C [Compound 951], the pEC50 was greater than 9.00. In the case of O=C(N[C@@H](C(=O)N1CCC[C@H]1c1ncc(-c2ccc(C#Cc3ccc(-c4cnc([C@@H]5CCCN5C(=O)[C@H](NC(=O)N5CCOCC5)c5ccccc5)[nH]4)cc3)cc2)[nH]1)c1ccccc1)C1CC1 [Compound 239], the pEC50 was greater than 9.00. CCN(CC)[C@@H](C(=O)N1CCC[C@H]1c1ncc(-c2ccc(-c3ccc(C#Cc4cnc([C@@H]5CCCN5C(=O)[C@H](NC(=O)OC)c5ccccc5)[nH]4)cc3)cc2)[nH]1)c1ccccc1 [Compound 751] showed a pEC50 greater than 9.00. C(#Cc1ccc2nc([C@@H]3CCCN3Cc3ccccc3)[nH]c2c1)c1ccc(-c2cnc([C@@H]3CCCN3Cc3ccccc3)[nH]2)cc1 [Compound 1052] was tested, and the pEC50 was less than 6.00. O=C([C@@H](c1ccccc1)N1CCCC1)N1CCC[C@H]1c1ncc(-c2ccc(C#Cc3ccc(-c4cnc([C@@H]5CCCN5C(=O)[C@@H](c5ccccc5)N5CCCC5)[nH]4)cc3)cc2)[nH]1 [Compound 194] showed a pEC50 greater than 9.00. Work on CC[C@@H](C)[C@H](NC(=O)OC)C(=O)N1CCC[C@H]1c1ncc(-c2ccc(C#Cc3ccc4nc([C@@H]5CCCN5C(=O)[C@@H](NC(=O)OC)[C@H](C)CC)[nH]c4c3)cc2)[nH]1 [Compound 1024] yielded a pEC50 greater than 9.00.

Same assay, conditions: Hepatitis C virus, Huh-7, read-out: Inhibition of HCV genotype 1b
For COC(=O)N[C@H](C(=O)N1CCC[C@H]1c1nc(C#N)c(C#Cc2ccc3cc(-c4cnc([C@@H]5CCCN5C(=O)[C@@H](NC(=O)OC)[C@@H](C)OC)[nH]4)ccc3c2)[nH]1)C1CCCC1 [Compound 1270], the pEC50 was greater than 9.00. Work on COC(=O)N[C@H](C(=O)N1CCC[C@H]1c1nc2ccc3cc(C#Cc4ccc5nc([C@@H]6CCCN6C(=O)[C@@H](NC(=O)OC)C6CCOCC6)[nH]c5c4)ccc3c2[nH]1)C(C)C [Compound 1274] yielded a pEC50 greater than 9.00. In the case of CC[C@H](C)[C@H](NC(=O)OC)C(=O)N1CCC[C@H]1c1ncc(-c2ccc(C#Cc3ccc4nc([C@@H]5CCCN5C(=O)[C@@H](NC(=O)OC)[C@@H](C)CC)[nH]c4n3)cc2)[nH]1 [Compound 1251], the pEC50 was greater than 9.00.
